The source of these data is US12611442B2, “mRNA encoding engineered CFTR” (Translate Bio, Inc., priority 2019, dated 2026).

What all share (type): cell-based
The test system of data set [1] is FRT cells. The experiment in a line: Time-course Ussing chamber assay (duration of activity, 22 and 44 hours). The settings on record: at 44 hours (measured at 22 and 44 hours); FIG. 14A, 14B. The protocol:
In this example, duration of activity of various phosphomimetic CFTR mutants were tested in combination with the K14R mutation using a time-course Ussing chamber assay as described in Example 3.
Activity of various CFTR proteins listed in Table 12 were measured at 22 and 44 hours. Short-circuit current (Isc), the movement of ions as measured in the Ussing chamber from active transport, was plotted for each CFTR protein at 22 and 44 hours.

Data set [2] has as its system FRT cells. The experiment in a line: Ussing chamber assay: short-circuit current (chloride ion transport) of cells transfected with WT or engineered CFTR mRNA; sequential forskolin, VX-770, CFTRinh-172. The protocol: Chloride ion transport was measured by an Ussing chamber. This assay provides an indication of chloride flux based on the principle that the epithelium pumps ions from one side to another and ions leak back through tight junctions situated between epithelial cells. The voltage difference between two sides of the epithelium is measured using two voltage electrodes placed near the tissue/epithelium. The voltage is cancelled out by injecting current, using two other electrodes placed away from the epithelium. The short circuit current is measured as net chloride ion transport.
Traces show short-circuit current measurements during sequential additions of forskolin, an activator of CFTR-mediated chloride secretion, and VX-770 (ivacaftor), a potentiator compound that directly increases phosphorylation-dependent CFTR channel opening on amphotericin B-permeabilized membranes. CFTR proteins A-D responded to forskolin activation resulting in increased chloride ion conductance. Forskolin activation was not observed for CFTR Protein E, the ATP hydrolysis deficient E1371Q mutant. Further addition of VX-770 increased conductance in CFTR Proteins B-D.
In this example, activation of various engineered CFTR protein mutants (proteins B-E, discussed above) were compared with the activation of wild type CFTR (protein A) using the Ussing assay as described in Example 3. In this example the engineered CFTR protein activity was tested at a low concentration of 0.35 μg (FIG. 4).
In this example, activities of various engineered phosphomimetic CFTR protein mutants (Table. 9) were compared with the activity of wild-type CFTR using the Ussing chamber assay as described in Example 3.

In another data set the test system is HEK293 cells. The experiment in a line: CFTR protein expression by protein gel / Western blot (C band). The settings on record: for C-band expression (quantification of Western blot): FIG. 11A, 11B; for expression in the C band (mature complex glycosylated CFTR): HEK293 lysates, FIG. 18A-18C. The protocol:
The CFTR band is depicted by an arrow (FIG. 3A).
To examine the expression of CFTR mutants, expression of the wild-type CFTR, 15E, 13E, and E1371Q mutants was quantified as shown in FIG. 11A and FIG. 11B.
Studies were also performed to assess in vitro translation and tolerability of CFTR mutants. […] The “C band” refers to mature complex glycosylated form of CFTR.
Background: Immunoblotting shows a protein as a band on a membrane.

Where [3] appears, read: HEK293 cells, versus wild-type CFTR.
[4] abbreviates: 0.35 μg (low concentration), FRT cells, FIG. 4.

Take “15E/K14R: K14R plus the 15E substitutions (codon optimized: SEQ ID NO: 51)”: the “remaining activity (short-circuit current, Isc)” value (“remaining activity” below) with FRT cells [1] is on record as “highest remaining activity at 44 hours”.
Regarding “13E: S422E, S660E, S670E, S686E, T690E, S700E, S712E, S753E, T787E, T788E, T790E, S795E, S813E (codon optimized: SEQ ID NO: 52)”, in the data set with FRT cells [2] (13 or 15 R-domain substitutions, FRT cells, FIG. 9A, 9B, 11E), the “CFTR activity, glutamate (E) versus aspartate (D) substitutions” value is “greater CFTR activity”. Besides, the “effect of additional K14R substitution on chloride conductance of the named protein” value with FRT cells [2] (FIG. 14C) is listed as “no effect”. The “change in activity when K14R mutation is combined with the named phosphomimetic mutant” value in the data set with FRT cells [2] (maximum activated current, FRT cells, FIG. 11C, 11D) is given as “no significant increase in the activity”. Also, the “C-band expression (quantification of Western blot)” value in the data set with HEK293 cells (setting [3]) is listed as “increased C-band expression”. Further, the “increase in protein (C-band, quantification of Western blot)” value in the data set with HEK293 cells (HEK293 cells, versus wild-type CFTR, FIG. 11B) is given as “greater than 2 fold”. Besides, in the data set with HEK293 cells, the “expression in the C band (mature complex glycosylated CFTR)” value was “increased expression in the C band”. For the same molecule, the “remaining activity” value in the data set with FRT cells [1] was “highest remaining activity at 44 hours”.
Turning to “E1371Q/K14R: E1371Q plus K14R (codon optimized: SEQ ID NO: 49)”, the “activity compared to wild-type CFTR and to E1371Q-only CFTR” value with FRT cells [2] (FRT cells, FIG. 13A, 13B) is “increased activity”. In addition, in the data set with HEK293 cells (FIG. 13B), the “expression compared to wild-type CFTR and to E1371Q-only CFTR” value is given as “increased expression”. Further, the “expression in the C band (mature complex glycosylated CFTR)” value in the data set on HEK293 cells is “increased expression in the C band”. Also, in the data set with FRT cells [1], the “remaining activity” value is “high remaining activity at 44 hours”.

B1: CFTR Protein E: E1371Q, ATP hydrolysis deficient (SEQ ID NO: 44, 48) (nucleic acid)
DNA: GTGCAGCCCCTGCTGCTCGGCAGAATCATCGCCTCATACGATCCAGACAACAAGGAAGAAAGAAGCATCGCCATCTACCTGGGCATTGGCCTCTGCCTCCTGTTTATTGTGCGGACTCTGCTGCTGCACCCAGCAATTTTCGGGTTGCATCATATTGGCATGCAGATGCGCATTGCTATGTTTTCCCTCATCTACAAAAAGACACTGAAACTCAGCTCCCGGGTGCTGGACAAGATCTCCATCGGCCAACTGGTGTCTCTCCTGAGCAATAACTTGAATAAGTTCGACGAAGGGCTGGCCCTGGCACACTTCGTGTGGATTGCCCCCCTGCAGGTGGCCCTGCTGATGGGACTGATTTGGGAACTGCTGCAGGCTAGCGCTTTCTGCGGCCTGGGGTTCCTGATCGTGCTGGCACTGTTTCAGGCAGGCCTGGGCCGTATGATGATGAAGTACAGAGACCAGAGGGCCGGGAAGATCTCCGAACGGCTCGTTATTACCTCTGAGATGATCGAGAACATTCAGTCTGTGAAAGCCTACTGCTGGGAGGAGGCTATGGAGAAGATGATCGAGAATCTGAGACAGACCGAGCTGAAGCTGACCAGAAAGGCCGCCTACGTGAGGTACTTCAACAGCAGTGCCTTCTTCTTCTCTGGCTTCTTCGTTGTGTTTCTGAGCGTGCTGCCATACGCTCTCATCAAAGGCATCATCCTGCGGAAGATCTTCACCACCATCAGCTTTTGCATCGTGCTTAGAATGGCCGTGACCCGGCAGTTCCCATGGGCCGTGCAAACTTGGTATGATTCCCTGGGCGCCATCAACAAAATCCAGGATTTCCTGCAGAAGCAGGAATACAAGACACTCGAATATAATCTCACAACTACTGAGGTGGTTATGGAGAACGTGACTGCCTTCTGGGAGGAGGGGTTCGGAGAGCTTTTTGAGAAGGCAAAACAGAATAACAACAACCGCAAAACCAGCAACGGCGACGACAGCCTGTTCTTCTCCAATTTTTCTCTCCTGGGAACACCCGTCCTCAAAGACATCAACTTTAAGATCGAGAGGGGACAGCTGCTCGCAGTCGCCGGATCCACAGGCGCCGGCAAGACCTCTCTGCTGATGGTTATCATGGGCGAACTGGAGCCATCCGAGGGCAAGATTAAGCACAGTGGAAGAATCTCCTTTTGTAGCCAGTTCAGTTGGATTATGCCCGGCACTATTAAGGAGAATATCATTTTTGGGGTGAGCTATGATGAGTATCGGTATCGGAGCGTTATCAAAGCCTGTCAGCTGGAGGAGGATATCAGCAAATTCGCAGAGAAGGATAATATCGTGCTGGGGGAGGGGGGAATCACCCTGAGCGGAGGCCAGAGAGCCAGAATCTCACTGGCCCGGGCCGTCTACAAGGACGCCGACCTTTACCTTCTGGACAGTCCCTTTGGATATCTGGATGTGCTGACTGAAAAGGAGATCTTCGAGTCTTGTGTGTGCAAG
On to B1, for which, in the data set with FRT cells [2] (0.35 μg (low concentration), FIG. 4), the forskolin activation entry was “forskolin activation at a lower dose in comparison to other constructs tested”. Moreover, in the data set on FRT cells [2] (setting [4]), the “conductance prior to forskolin addition” value was “significant pre-forskolin conductance” and the “overall activity compared to wild-type CFTR” value is “overall increased activity”. The “response to forskolin activation (chloride ion conductance, short-circuit current)” value in the data set on FRT cells [2] (0.5 μg CFTR (high concentration), amphotericin B-permeabilized membranes, FIG. 3B) is “not observed”. In addition, the “forskolin activation and increased activity by addition of VX-770” value with FRT cells [2] (FIG. 12A, 12B) was “minimal response to VX-770”. In addition, the “activity / conductance (short circuit current) compared to wild-type CFTR” value in the data set on FRT cells [2] (FRT cells, FIG. 12A, 12B) is given as “overall higher conductance than the wild-type CFTR”. For the same molecule, the “activity pattern across doses” value in the data set on FRT cells [2] (doses 0.05-0.35 μg/well, FIG. 5) was “consistent activity pattern across treatments”. For the same molecule, the “effect of K1218R mutation on activity of the named CFTR protein” value with FRT cells [2] (short-circuit conductivity, FIG. 15C) is recorded as “decreases activity”. Also, in the data set with HEK293 cells (setting [3]), the “C-band expression (quantification of Western blot)” value was “increased C-band expression”.
